This is an account of results in patent publication US20170216240A1, “METHODS FOR MODULATING IKS CHANNEL ACTIVITY” (UNIVERSITY OF MIAMI, priority 2014, published 2017).

Data set [1] concerns the target T1, Kv7.1/KCNE1 (Homo sapiens, UniProt P51787).
T1 construct: expressed in transfected cells; host or cells: Xenopus laevis oocytes (cRNA co-injection)
In words: G(V) shift of Kv7.1 co-expressed with KCNE1 in Xenopus oocytes, two-electrode voltage-clamp. It counts as cell-based. Particulars: for ΔV1/2 ± SEM (G(V) shift): Kv7.1/E1; for pKa: human, Xenopus oocytes co-expressing human Kv7.1 and KCNE1, read-out: apparent pKa (pH of c0.5). The source says:
(§1) cDNAs encoding human Kv7.1 (GEnBAnk Acc. No. NM_000218) and KCNE1 (NM_000219) were subcloned into the expression vectors pGEM or pXOOM, containing the 5′- and 3′-untranslated regions for Xenopus laevis β-globin as well as a poly-A segment (Jespersen et al., Biotechniques 32, 536-538, 540 (2002)). The truncated KCNE1 construct KCNE1ΔC was constructed by introducing a Stop codon at position 67 using Quikchange site-directed mutagenesis kit (Qiagen). The construct was fully sequenced to ensure proper mutation and absence of unwanted mutations (sequencing by Genewiz). The concatemers E1-Kv7.1-Kv7.1 and E1-Kv7.1 were provided by Dr. R. S. Kass at Columbia University, and can be prepared as described in Chan et al. Journal of General Physiology 132(2), 135-144, (2012)). The E1-Kv7.1 construct was made by linking the C-terminus of KCNE1 to the N-terminus of KCNQ1. The E1-Kv7.1-Kv7.1 construct was made by digesting the E1-Kv7.1 and a Kv7.1-Kv7.1 dimer with Xho1 and inserting the 2-kb fragment from the Kv7.1-Kv7.1 dimer digest into the cut KCNE1-Kv7.1 construct. The DNA encoding E1-Kv7.1-Kv7.1 and E1-Kv7.1 were in the pGEM vector and contained mutations to make the constructs suitable for voltage-clamp fluorometry recordings (Wang et al., J Biol Chem 273, 34069-34074 (1998)). The original KCNE1 and Kv7.1 sequences were therefore removed, one at a time, from the pGEM vector using different restriction enzymes (New England Biolabs). Sequences were separated using gel electrophoresis and harvested using Qiagen gel extraction kit. Corresponding wild type sequences were ligated into the construct using T4 Ligase (New England Biolabs). To ensure correct sequence the constructs were sequenced (Genewiz) and tested with different restriction enzymes in combination with gel electrophoresis to measure length and conformation of the gene. cRNA for injection of all constructs was prepared from linearized DNA using the T7 mMessage mMachine transcription kit (Ambion) according to the manufactures instructions. RNA quality was checked by gel electrophoresis, and RNA concentrations were quantified by UV spectroscopy.
(§2) Xenopus laevis oocytes were isolated and maintained (Bentzen, B. H. et al. Neuropharmacology 51, 1068-1077 (2006)). Approximately 50 nl cRNA (50 ng Kv7.1, KCNE1-Kv7.1-Kv7.1 or KCNE1-Kv7.1 alternatively 25 ng Kv7.1 together with 8 ng KCNE1 or KCNE1ΔC) was injected into each oocyte using a Nanojet microinjector (Drummond). Electrophysiological experiments were made 2-5 days after injection. Currents were measured at room temperature with the two-electrode voltage-clamp technique (CA-1B Dagan amplifier). Currents were sampled at 1-3.3 kHz, filtered at 500 Hz, and not leakage corrected. […] A control solution containing (in mM): 88 NaCl, 1 KCl, 15 HEPES, 0.4 CaCl2, and 0.8 MgCl2 was used. NaOH was added to adjust pH to 7.4, yielding a final sodium concentration of about 100 mM. The holding voltage was generally set to −80 mV. Activation curves were generally elicited by stepping to test voltages between −110 and +60 mV (2-4 s durations and 10 mV increments) followed by a tail voltage of −30 mV. For recordings of Kv7.1 at pH 9 and pH 10, the holding voltage was set to more negative voltages because the largest DHA-induced shifts induced channel opening already at −80 mV. […] Therefore, in arachidonyl amine experiments a brief hyperpolarizing pulse of 50 ms to −120 mV was introduced between the test voltage and the tail voltage to relief the channels from inactivation.
(§3) Test compounds were dissolved in 99.5% ethanol to a concentration of 100 mM and stored at −20° C. (Börjesson et al., Biophys J 95, 2242-2253 (2008); Börjesson et al., Biophys J 98, 396-403 (2010)). Shortly before experiments, test compounds were diluted in control solution to the desired test concentration. Pure control solution was added to the bath using a gravity-driven perfusion system. […]

The target of data set [2] is Kv7.1 (Homo sapiens, UniProt P51787). The experiment in a line: G(V) shift of Kv7.1 expressed in Xenopus laevis oocytes, two-electrode voltage-clamp. The format is cell-based.
Excerpt: as §1, §2, §3

For data set [3], the target named is KCNE1-Kv7.1 (Homo sapiens, UniProt P15382+P51787). The experiment in a line: G(V) shift of KCNE1-Kv7.1 concatemer (4:4 stoichiometry) in Xenopus oocytes. The format is cell-based. Particulars: 70 μM; for ΔV1/2 ± SEM (G(V) shift): E1-Kv7.1.
Excerpt: (§4) As used herein, the terms “KCNE1-Kv7.1” and “KCNE1-Kv7.1-Kv7.1” refer to concatemers of Kv7.1 and KCNE1 in 4:4 and 4:2 stoichiometry, respectively.
as §1, with “The original KCNE1 and Kv7.1 sequences were therefore removed, one at a time, from the pGEM vector using different restriction enzymes (New England Biolabs). Sequences were separated using gel electrophoresis and harvested using Qiagen gel extraction kit. Corresponding wild type sequences were ligated into the construct using T4 Ligase (New England Biolabs). To ensure correct sequence the constructs were sequenced (Genewiz) and tested with different restriction enzymes in combination with gel electrophoresis to measure length and conformation of the gene. cRNA for injection of all constructs was prepared from linearized DNA using the T7 mMessage mMachine transcription kit (Ambion) according to the manufactures instructions.” left out
(§5) Xenopus laevis oocytes were isolated and maintained (Bentzen, B. H. et al. Neuropharmacology 51, 1068-1077 (2006)). […] Currents were measured at room temperature with the two-electrode voltage-clamp technique (CA-1B Dagan amplifier). […]
(§6) Xenopus laevis oocyte data were acquired using either Pulse software (HEKA) or Clampex 10.2 (Axon Instruments), and analyzed with Clampfit 10 (Axon Instruments) and GraphPad Prism 4 (GraphPad Software). […]

Data set [4] addresses KCNE1-Kv7.1-Kv7.1 (Homo sapiens, UniProt P15382+P51787). In words: G(V) shift of KCNE1-Kv7.1-Kv7.1 concatemer (4:2 stoichiometry) in Xenopus oocytes. It counts as cell-based. Particulars: 70 μM; for ΔV1/2 ± SEM (G(V) shift): E1-Kv7.1-Kv7.1.
Excerpt: as §4
as §1, with “The original KCNE1 and Kv7.1 sequences were therefore removed, one at a time, from the pGEM vector using different restriction enzymes (New England Biolabs). Sequences were separated using gel electrophoresis and harvested using Qiagen gel extraction kit. Corresponding wild type sequences were ligated into the construct using T4 Ligase (New England Biolabs). To ensure correct sequence the constructs were sequenced (Genewiz) and tested with different restriction enzymes in combination with gel electrophoresis to measure length and conformation of the gene. cRNA for injection of all constructs was prepared from linearized DNA using the T7 mMessage mMachine transcription kit (Ambion) according to the manufactures instructions.” left out
as §5, §6

The nature of data set [5]: in vitro. The following applies: human, Caco-2.
The test system of data set [6] is intact guinea pig hearts. The experiment in a line: Restoration of QT interval in intact hearts with E4031-induced Long QT. The following applies: E4031. The source says:
Long QT syndrome was induced in intact guinea pig hearts by administration of the drug E4031, a HERG channel blocker.

Data set [7] has as its system Caco-2 cells.

Several values for one entry are separate records, joined by “and”; a condition that tells them apart may be missing. Equal values may be shown once. Read-outs that look alike come from different tables or passages of the source.

`CCCCC/C=C\C/C=C\C/C=C\C/C=C\CCCCN` [AA+, arachidonyl amine]: the “ΔV1/2 ± SEM (G(V) shift)” value in data set [1] (70 μM, pH 7.4) is listed as “+22.6 ± 1.9 mV”; in data set [1] (70 μM, pH 7.4, listed as arachidonyl amine) it was “+22.6±1.9 mV”; in data set [2] (Kv7.1, 70 μM, pH 7.4), “+9.7 ± 2.1 mV”; in data set [2] (Kv7.1, 70 μM, pH 7.4, listed as Arachidonyl amine), “+9.7±2.1 mV”; in data set [2] (Kv7.1, 70 μM, pH 7.4, listed as arachidonyl amine), “+9.7±2.1 mV”. Moreover, in data set [1] (Kv7.1/KCNE1, 70 μM, pH 7.4), the “G(V) shift of a representative cell (control curve shifted)” value was “+28 mV”. The “G(V) shift” value in data set [1] (Kv7.1/KCNE1, pH 7) is “about +25 mV”. The Kv7.1 channel inactivation result in data set [2] (Kv7.1) is “induced Kv7.1 channel inactivation”.

For `CC/C=C\C/C=C\C/C=C\C/C=C\C/C=C\C/C=C\CCC(=O)O` [DHA, 4,7,10,13,16,19-all-cis-docosahexaenoic acid], the “G(V) shift of a representative cell (control curve shifted)” value in data set [3] (KCNE1-Kv7.1) is reported as “+5.5 mV”; in data set [4] (KCNE1-Kv7.1-Kv7.1), “+7 mV”; in data set [1] (Kv7.1/KCNE1, 70 μM, pH 9), −35 mV. The “c0.5 (pH-dependence of the G(V) shift)” value is recorded as 3.3*10^−9 in data set [1] (Kv7.1/KCNE1, 70 μM) and 1.8*10^−8 in data set [2] (Kv7.1, 70 μM). Besides, the “ΔVmax (pH-dependence of the G(V) shift)” value in data set [1] (Kv7.1/KCNE1, 70 μM) was −26.6 mV; in data set [2] (Kv7.1, 70 μM) it was −30.7 mV. The pKa in data set [1] (Kv7.1/KCNE1, 70 μM) is 8.5; in data set [2] (human, Xenopus laevis oocytes expressing human Kv7.1, Kv7.1, 70 μM, read-out: apparent pKa as reported by the shift of the G(V) relation) it was approximately 7.7. The maximal conductance entry in data set [2] (Kv7.1) is recorded as “without affecting maximal conductance”. Moreover, the “G(V) shift” value in data set [2] (Kv7.1, 7 μM) is given as −3.0±0.5 mV; in data set [2] (Kv7.1, 70 μM, pH 10) it was “about −30 mV”; in data set [2] (Kv7.1, external pH 6.5), “abolishes the DHA effect”. In data set [2] (Kv7.1, 35 μM DHA alone), the “G(V) shift predicted from the concentration-response curve” value is on record as −6.5 mV. The “estimated maximum shift ΔVmax (concentration dependence)” value in data set [2] (Kv7.1, pH 7.4) is −15.8±2.3 mV and −15.8 mV. In addition, the EC50 in data set [2] (Kv7.1, pH 7.4, read-out: c0.5, concentration causing 50% of the maximum shift) is 50 ± 20 µM; in data set [2] (Kv7.1, pH 9.0, read-out: C0.5 (concentration-response)) it was 10 µM. Further, the “ΔVmax (concentration-response)” value in data set [2] (Kv7.1, pH 9.0) is given as −27.7 mV.

Take `CC/C=C\C/C=C\C/C=C\C/C=C\C/C=C\C/C=C\CCC(=O)NCC(=O)O` [DHA-Gly, docosahexaenoyl glycine]: in data set [5], the efflux ratio (as a rule, a quotient of directional permeabilities that is used to spot active efflux) turned out to be 3.6. The “apparent pKa lower than that of DHA” value in data set [1] (Kv7.1/KCNE1) is listed as “about 1.5 pH unit”. Moreover, in data set [1] (Kv7.1/KCNE1, 70 μM), the pKa turned out to be 6.9. Further, the “concentration able to restore the QT intervals” value in data set [6] was 10 µM.

For the molecule `CC/C=C\C/C=C\C/C=C\C/C=C\C/C=C\C/C=C\CCC(=O)OC` [DHA-me, 4,7,10,13,16,19-all-cis-docosahexaenoic acid methyl ester], the “ΔV1/2 ± SEM (G(V) shift)” value in data set [3] (pH 7.4) is “+5.0 ± 1.3 mV”; in data set [3] (pH 9.0), “+3.6 ± 2.6 mV”; in data set [4] (pH 7.4), “+5.7 ± 0.9 mV”; in data set [4] (pH 9.0), “+8.2 ± 2.7 mV”; in data set [2] (Kv7.1, 70 μM, pH 7.4) it was “+2.8 ± 2.5 mV”; in data set [2] (Kv7.1, 70 μM, pH 7.4, listed as DHA methyl ester) it was “no effect”. For the same molecule, the “ΔV1/2 ± SEM (G(V) shift)” value in data set [2] (Kv7.1, 70 μM, pH 7.4, listed as DHA-Me) is reported as “+2.8±2.5 mV”.

For the molecule `CCCCC/C=C\C/C=C\CCCCCCCC(=O)NCC(=O)O` [Lin-Gly, linoleoyl-glycine], in data set [2] (compared among NAA, Lin-Gly, Ste-Gly, DHA-Gly, TTA, HTA), the Kv7.1 affinity entry is listed as “lowest affinity”.

For `CCCCCCCC/C=C\CCCCCCCC(=O)O` [OA, oleic acid], the “ΔV1/2 ± SEM (G(V) shift)” value in data set [2] (Kv7.1, 70 μM, pH 7.4) is given as −1.0±0.5 mV; in data set [2] (Kv7.1, 70 μM, pH 7.4, listed as Oleic acid), “no effect”.

Turning to `CC(C)NCC(O)COc1cccc2ccccc12` (centres unmarked) [propranolol, reference compound], the “permeability coefficient (Papp)” value in data set [7] is recorded as 20×10^−6 cms^−1.
